From patent publication US20160002643A1, “Compositions And Methods To Enhance Protein Expression” (priority 2014, published 2016)
“Also recorded” adds a separate entry of the source.

Experiments:
[1] = test system: induction of co-transfected genes by pLKO.1c; test: Drug inhibition experiments on pLKO.1c induction of co-transfected genes; type: cell-based; details: p38 inhibitor 10 μM 24 hr; Mnk1 inhibitor 2 nM 40 hr
Procedure: The Mnk1 inhibitor (Calbiochem) was added at 2 nM for 40 hr, and the p38 inhibitor (SB203580) was added at 10 μM for 24 hr prior to harvesting transfections.

[2] = test system: EGFP, ER-mCherry or mCherry expression in 293 cells; test: FACS / fluorescence analysis of co-transfected EGFP and mCherry expression; type: cell-based, human; details: 2.5 ng EGFP expression plasmid
Procedure: The average mean fluorescence and range of duplicate transfections of 5 μg of pLKO.1c or pLKΔHP plasmids into 293 cells was determined in the presence or absence of the indicated amount of pEGFP vector relative to the pcDNA control. […]
Calcium phosphate transfection of 293 cells was performed in triplicate with 5 μg of the pTRE plasmids and 1 μg of the transactivator as indicated. All cells were incubated with 300 ng/ml DOX at 7 hr post-transfection prior to FACS analysis at 48 hr. The mean and standard deviations of triplicates are reported relative to pTRE3G-BI-mCherry in the absence of transactivator. All values (lanes 2, 3, and 4) were highly statistically significant (p<0.0001) relative to values from lane 1 as was lane 3 relative to 4.
Transfections were performed as in panel B except that samples without the pTRE plasmids were included (pcDNA3). All transfections contained 2.5 ng of the EGFP expression plasmid. Without the transactivator, pTRE-Psi-sh elevated GFP expression ˜10-fold compared to pcDNA3 (p<0.0001; lanes 5 and 1) and ˜6-fold compared to pTRE-3G-BI-mCherry (p<0.0001; lanes 5 and 3). […]

Nc1ncnc2n[nH]c(Nc3ccc(F)cc3)c12 [CGP57380]
effect of inhibitor on induction of co-transfected genes by pLKO.1c [1]: no observable effect

C[S+]([O-])c1ccc(-c2nc(-c3ccncc3)c(-c3ccc(F)cc3)[nH]2)cc1 (stereo not drawn) [SB203580]
effect of inhibitor on induction of co-transfected genes by pLKO.1c [1]: no effect

pMT2: adenoviral gene containing plasmid on a pBR322 backbone expressing Ad VA-RNA I, SEQ ID NO:07
super-induction of co-transfected GFP/EGFP (in words) [2]: showed super-induction of GFP; also recorded: comparable to super-induction of GFP by pLKO.1e
